From US9353091B2 (priority 2009, dated 2016)
pEC50, pIC50: −log10 of the molar value.

Tests used:
[1] = biological target: T1, HCV polymerase 1A (Δ21 NS5B) (Hepatitis C virus genotype 1a, UniProt P27958); assay: HCV Polymerase Inhibition Assay (1a); assay type: biochemical
T1 construct: 20 to 50 nM Δ21 NS5B
Protocol: (§1) Reaction volume was 50 μL. The reaction was terminated by the addition of 1 volume of 4 mM spermine in 10 mM Tris-Cl pH 8.0, 1 mM EDTA. After incubation for at least 15 minutes at room temperature, the precipitated RNA was captured by filtering through a GF/B filter (Millipore) in a 96 well format. The filter plate was washed three times with 200 μL, each of 2 mM spermine, 10 mM Tris-Cl pH 8.0, 1 mM EDTA, and 2 times with ethanol. After air-drying, 30 μL, of Microscint 20 scintillation cocktail (Packard) was added to each well, and the retained cpm were determined by scintillation counting. […] Retained cpm were plotted vs. inhibitor concentration and fit to equation 1 using non-linear regression (ref. 1) to obtain the IC50 values: Retained cpm=A[sqrt{(IC50+It−Et)^2+4*IC50*Et}−(IC50+It−Et)]
(§2) Ref. Morrison, J. F. and S. R. Stone. 1985. Approaches to the study and analysis of the inhibition of enzymes by slow- and tight-binding inhibitors. Comments Mol. Cell. Biophys. 2: 347-368.
(§3) The sequence of the template RNA used was: 5′-[…] […] […] […] […] […] […] […] […] […] […] […] […] […] […] […] […]-3′ (SEQ ID NO: 1)

[2] = biological target: T2, HCV polymerase 1B (Δ21 NS5B) (Hepatitis C virus genotype 1b, UniProt P26663); assay: HCV Polymerase Inhibition Assay (1b); assay type: biochemical
T2 construct: 20 to 50 nM Δ21 NS5B
Protocol: as §1, §2, §3

[3] = system: genotype 1a-H77 subgenomic replicon cell line; assay: HCV Polymerase Replicon Assay (genotype 1a-H77, luciferase reporter); assay type: cell-based; settings: Hepatitis C virus, 72 h, 1a-H77 replicon, three days
[4] = system: genotype 1b-Con1 subgenomic replicon cell line; assay: HCV Polymerase Replicon Assay (genotype 1b-Con1, luciferase reporter); assay type: cell-based; settings: Hepatitis C virus, 72 h, 1b-Con1 replicon, three days

T2 sequence (P26663 2420-2989, stated change not applied): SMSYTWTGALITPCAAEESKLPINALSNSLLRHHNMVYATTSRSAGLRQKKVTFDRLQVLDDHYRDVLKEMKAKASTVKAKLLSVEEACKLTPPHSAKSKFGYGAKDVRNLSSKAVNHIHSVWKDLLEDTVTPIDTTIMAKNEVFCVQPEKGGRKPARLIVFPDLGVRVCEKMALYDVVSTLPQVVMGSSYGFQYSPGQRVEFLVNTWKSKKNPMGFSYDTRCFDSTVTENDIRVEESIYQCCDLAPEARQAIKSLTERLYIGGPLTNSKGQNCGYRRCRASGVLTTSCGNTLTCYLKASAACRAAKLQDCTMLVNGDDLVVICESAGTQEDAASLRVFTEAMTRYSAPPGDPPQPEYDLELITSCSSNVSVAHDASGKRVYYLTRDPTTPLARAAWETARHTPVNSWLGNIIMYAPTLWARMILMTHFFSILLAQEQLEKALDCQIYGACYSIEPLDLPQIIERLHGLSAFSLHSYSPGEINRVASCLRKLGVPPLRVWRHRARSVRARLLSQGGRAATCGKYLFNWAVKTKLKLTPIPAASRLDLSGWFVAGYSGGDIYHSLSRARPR
T1 sequence (P27958 2421-2990, stated change not applied): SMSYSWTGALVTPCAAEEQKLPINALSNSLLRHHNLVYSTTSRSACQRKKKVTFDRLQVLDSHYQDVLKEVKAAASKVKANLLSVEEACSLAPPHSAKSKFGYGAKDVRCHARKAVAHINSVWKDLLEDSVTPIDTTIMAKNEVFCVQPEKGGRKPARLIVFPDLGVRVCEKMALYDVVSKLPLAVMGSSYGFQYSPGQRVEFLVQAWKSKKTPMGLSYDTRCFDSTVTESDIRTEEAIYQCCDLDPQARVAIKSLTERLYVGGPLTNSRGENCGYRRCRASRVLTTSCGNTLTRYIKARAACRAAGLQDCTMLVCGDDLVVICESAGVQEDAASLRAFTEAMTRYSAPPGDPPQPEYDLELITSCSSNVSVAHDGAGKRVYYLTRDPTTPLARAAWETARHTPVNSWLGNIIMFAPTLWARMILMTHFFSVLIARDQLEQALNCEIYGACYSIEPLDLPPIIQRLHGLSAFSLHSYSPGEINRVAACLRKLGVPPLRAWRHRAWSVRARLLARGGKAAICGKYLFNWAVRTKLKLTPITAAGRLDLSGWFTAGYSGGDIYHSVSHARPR

Question: Which results are given for `COc1c(-c2ccc3cc(NS(C)(=O)=O)ccc3c2)cc(-c2ccc[nH]c2=O)cc1C(C)(C)C` [compound 9, N-(6-(3-tert-butyl-2-methoxy-5-(2-oxo-1,2-dihydropyridin-3-yl)phenyl)naphthalen-2-yl)methanesulfonamide]?
Answer: pIC50 [1]: > 8.00; pIC50 [2]: 7.00 to 8.00; pEC50 [3]: ≥ 8.00; pEC50 [4]: ≥ 8.00

Question: How did the pIC50 [1] turn out when `COc1c(-c2ccc3cc(NS(C)(=O)=O)ccc3c2)cc(N2CCOC2=O)cc1C(C)(C)C` [compound 25, N-(6-(3-tert-butyl-2-methoxy-5-(2-oxooxazolidin-3-yl)phenyl)naphthalen-2-yl)methanesulfonamide] was run?
Answer: Its pIC50 is 6.00 to 7.00.

Question: What about the pIC50 [2] of the same molecule?
Answer: Its pIC50 is 6.00 to 7.00.

Question: And the pEC50 [3]?
Answer: Its pEC50 is < 6.00.

Question: What about the pEC50 [4] of the same molecule?
Answer: Its pEC50 is < 6.00.

Question: With `COc1c(Br)cc(-c2c[nH]c(=O)[nH]c2=O)cc1C(C)(C)C` [compound 5, 5-(3-bromo-5-tert-butyl-4-methoxyphenyl)pyrimidine-2,4(1H,3H)-dione] as the molecule, how does the pIC50 [1] read?
Answer: The pIC50 was < 6.00.

Question: And the pIC50 [2]?
Answer: Its pIC50 is < 6.00.

Question: And the pEC50 [3]?
Answer: The pEC50 was < 6.00.

Question: What about the pEC50 [4] of the same molecule?
Answer: The pEC50 was < 6.00.

Question: `COc1c(-c2ccc3c(c2)CC=C3CNS(C)(=O)=O)cc(-c2c[nH]c(=O)[nH]c2=O)cc1-c1ccc(C)o1` [compound 44, N-((6-(5-(2,4-dioxo-1,2,3,4-tetrahydropyrimidin-5-yl)-2-methoxy-3-(5-methylfuran-2-yl)phenyl)-1H-inden-3-yl)methyl)methanesulfonamide] was tested. Which pIC50 [1] did it give?
Answer: Its pIC50 is 7.00 to 8.00.

Question: What about the pIC50 [2] of the same molecule?
Answer: Its pIC50 is 7.00 to 8.00.

Question: And the pEC50 [3]?
Answer: Its pEC50 is 6.00 to 7.00.

Question: What about the pEC50 [4] of the same molecule?
Answer: Its pEC50 is 7.00 to 8.00.

Question: How did the pIC50 [1] turn out when `COc1c(-c2ccc3cc(NS(C)(=O)=O)ccc3c2)cc(N2CCCNC2=O)cc1C(C)(C)C` [compound 26, N-(6-(3-tert-butyl-2-methoxy-5-(2-oxotetrahydropyrimidin-1(2H)-yl)phenyl)naphthalen-2-yl)methanesulfonamide] was run?
Answer: Its pIC50 is 7.00 to 8.00.

Question: And the pIC50 [2]?
Answer: The pIC50 was 7.00 to 8.00.

Question: What about the pEC50 [3] of the same molecule?
Answer: The pEC50 was 7.00 to 8.00.

Question: What about the pEC50 [4] of the same molecule?
Answer: Its pEC50 is ≥ 8.00.

Question: Which results are given for `COc1c(-c2ccc3cc(NS(C)(=O)=O)ccc3c2)cc(-c2cn(C)c(=O)[nH]c2=O)cc1C(C)(C)C` [compound 7, N-(6-(3-tert-butyl-2-methoxy-5-(1-methyl-2,4-dioxo-1,2,3,4-tetrahydropyrimidin-5-yl)phenyl)naphthalen-2-yl)methanesulfonamide]?
Answer: pIC50 [1]: > 8.00; pIC50 [2]: 7.00 to 8.00; pEC50 [3]: 7.00 to 8.00; pEC50 [4]: ≥ 8.00

Question: `COc1c(-c2ccc3cc(NS(C)(=O)=O)ccc3c2)cc(N2CC(=O)NC2=O)cc1C(C)(C)C` [compound 16, N-(6-(3-tert-butyl-5-(2,4-dioxoimidazolidin-1-yl)-2-methoxyphenyl)naphthalen-2-yl)methanesulfonamide] was tested. Which pIC50 [1] did it give?
Answer: The pIC50 was 7.00 to 8.00.

Question: And the pIC50 [2]?
Answer: The pIC50 was 7.00 to 8.00.

Question: And the pEC50 [3]?
Answer: Its pEC50 is 6.00 to 7.00.

Question: What about the pEC50 [4] of the same molecule?
Answer: The pEC50 was 6.00 to 7.00.

Question: How did the pIC50 [1] turn out when `COc1c(-c2ccc3cc(NS(C)(=O)=O)ccc3c2)cc(-c2c[nH]c(=O)[nH]c2=O)cc1-c1cnn(C)c1` [compound 41, N-(6-(5-(2,4-dioxo-1,2,3,4-tetrahydropyrimidin-5-yl)-2-methoxy-3-(1-methyl-1H-pyrazol-4-yl)phenyl)naphthalen-2-yl)methanesulfonamide] was run?
Answer: The pIC50 was 6.00 to 7.00.

Question: And the pIC50 [2]?
Answer: Its pIC50 is 6.00 to 7.00.

Question: And the pEC50 [3]?
Answer: The pEC50 was < 6.00.

Question: What about the pEC50 [4] of the same molecule?
Answer: The pEC50 was < 6.00.

Question: What does the source list for `COc1c(-c2ccc3cc(NS(C)(=O)=O)ccc3c2)cc(NC(=O)CCNC(=O)OC(C)(C)C)cc1C(C)(C)C` [compound 23, tert-butyl 3-(3-tert-butyl-4-methoxy-5-(6-(methylsulfonamido)naphthalen-2-yl)phenylamino)-3-oxopropylcarbamate]?
Answer: pIC50 [1]: 6.00 to 7.00; pIC50 [2]: < 6.00; pEC50 [3]: < 6.00; pEC50 [4]: < 6.00

Question: What does the source list for `COc1c(-c2ccc3c(CNS(C)(=O)=O)csc3c2)cc(-c2c[nH]c(=O)[nH]c2=O)cc1C(F)(F)F` [compound 51, N-((6-(5-(2,4-dioxo-1,2,3,4-tetrahydropyrimidin-5-yl)-2-methoxy-3-(trifluoromethyl)phenyl)benzo[b]thiophen-3-yl)methyl)methanesulfonamide]?
Answer: pIC50 [1]: > 8.00; pIC50 [2]: 7.00 to 8.00; pEC50 [3]: 6.00 to 7.00; pEC50 [4]: 7.00 to 8.00

Question: Which results are given for `CCOC(=O)CCNC(=O)Nc1cc(-c2ccc3cc(NS(C)(=O)=O)ccc3c2)c(OC)c(C(C)(C)C)c1` [compound 21, ethyl 3-(3-(3-tert-butyl-4-methoxy-5-(6-(methylsulfonamido)naphthalen-2-yl)phenyl)ureido)propanoate]?
Answer: pIC50 [1]: 6.00 to 7.00; pIC50 [2]: < 6.00; pEC50 [3]: 6.00 to 7.00; pEC50 [4]: 6.00 to 7.00

Question: `COc1c(-c2ccc3c(c2)CCC3O)cc(-c2c[nH]c(=O)[nH]c2=O)cc1C(C)(C)C` (stereo not drawn) [compound 13, 5-(3-tert-butyl-5-(1-hydroxy-2,3-dihydro-1H-inden-5-yl)-4-methoxyphenyl)pyrimidine-2,4(1H,3H)-dione] was tested. Which pIC50 [1] did it give?
Answer: Its pIC50 is 6.00 to 7.00.

Question: What about the pIC50 [2] of the same molecule?
Answer: The pIC50 was 6.00 to 7.00.

Question: And the pEC50 [3]?
Answer: Its pEC50 is < 6.00.

Question: And the pEC50 [4]?
Answer: Its pEC50 is < 6.00.
